Reference: US10882871B2, “18/19F-labelled compounds which target the prostate specific membrane antigen” (BRITISH COLUMBIA CANCER AGENCY BRANCH, priority 2016, dated 2021)

Assays:
[1] = tested on: PSMA-expressing LNCAP cancer xenografts; test: Biodistribution and tumor-to-background contrast ratios of 18F-labeled tracers; type: in vivo, mouse (NODSCID 1L2RγKO male mice)
Procedure: LNCap cell line was obtained from ATCC (LNCaP clone FGC, CRL-1740). It was established from a metastatic site of left supraclavicular lymph node of human prostatic adenocarcinoma. Cells were cultured in PRMI 1640 medium supplemented with 10% FBS, penicillin (100 U/mL) and streptomycin (100 μg/mL) at 37° C. in a humidified incubator containing 5% CO2. Cells grown to 80-90% confluence were then washed with sterile phosphate-buffered saline (1×PBS pH 7.4) and trypsinization. The collected cells number was counted with a Hausser Scientific (Horsham, Pa.) Hemacytometer.
Imaging and biodistribution experiments were performed using NODSCID 1L2RγKO male mice. Mice were anesthetized by inhalation with 2% isoflurane in oxygen, and implanted subcutaneously with 1×10^7 LNCaP cells behind left shoulder. Mice were imaged or used in biodistribution studies when the tumor grew up to reach 5-8 mm in diameter during 5-6 weeks.
PET imaging experiments were conducted using Siemens Inveon micro PET/CT scanner. Each tumor bearing mouse was injected 6-8 MBq of F-18 labeled tracer through the tail vein under anesthesia (2% isoflurane in oxygen). The mice were allowed to recover and roam freely in their cage. After 50 min, the mice were sedated again with 2% isoflurane in oxygen inhalation and positioned in the scanner. A 10-min CT scan was conducted first for localization and attenuation correction after segmentation for reconstructing the PET images. Then, a 10-min static PET imaging was performed to determined uptake in tumor and other organs. The mice were kept warm by a heating pad during acquisition. For imaging studies acquired at 2 h post-injection (p.i.), the mice were placed in the micro PET/CT scanner at 110 min p.i. Then, the CT and PET acquisitions were conducted as described above.
For biodistribution studies, the mice were injected with the radiotracer as described above. At predetermined time points (1 or 2 h), the mice was anesthetized with 2% isoflurane inhalation, and euthanized by CO2 inhalation. Blood was withdrawn immediately from the heart, and the organs/tissues of interest were collected. The collected organs/tissues were weighed and counted using an automatic gamma counter. The uptake in each organ/tissue was normalized to the injected dose using a standard curve, and expressed as the percentage of the injected dose per gram of tissue (% ID/g).

[2] = tested on: PSMA-expressing prostate cancer; conditions: clinical trials, PSMA-expressing prostate cancer patients; cited from earlier work

Row | Compound | Biodistribution Adrenal glands ([1]; 1 h) [% ID/g] | Biodistribution Blood ([1]; 1 h) [% ID/g] | Biodistribution Bone ([1]; 1 h) [% ID/g] | Biodistribution Brain ([1]; 1 h) [% ID/g] | Biodistribution Fat ([1]; 1 h) [% ID/g] | Biodistribution Heart ([1]; 1 h) [% ID/g] | Biodistribution Intestine ([1]; 1 h) [% ID/g] | Biodistribution Kidneys ([1]; 1 h) [% ID/g] | Biodistribution Liver ([1]; 1 h) [% ID/g] | Biodistribution Lungs ([1]; 1 h) [% ID/g] | Biodistribution Muscle ([1]; 1 h) [% ID/g] | Biodistribution Pancreas ([1]; 1 h) [% ID/g] | Biodistribution Spleen ([1]; 1 h) [% ID/g] | Biodistribution Stomach ([1]; 1 h) [% ID/g] | Biodistribution Testes ([1]; 1 h) [% ID/g] | Biodistribution Tumor ([1]; 1 h) [% ID/g] | Tumor:Blood contrast ratio ([1]; 1 h) | Tumor:Muscle contrast ratio ([1]; 1 h) | Tumor:kidney contrast ratio ([1]; 1 h) | further results
1 | C[N+](C)(Cc1cn(CC(=O)NCCOCCOCCC(=O)N[C@@H](Cc2ccc3ccccc3c2)C(=O)NCCCC[C@H](NC(=O)N[C@@H](CCC(=O)O)C(=O)O)C(=O)O)nn1)C[B-](F)(F)[18F] [^18F-HTK01146] | 0.81 ± 0.25 | 0.13 ± 0.08 | 0.10 ± 0.07 | 0.01 ± 0.01 | 0.27 ± 0.14 | 0.07 ± 0.02 | 22.2 ± 2.79 | 29.9 ± 25.0 | 0.83 ± 0.34 | 0.40 ± 0.13 | 0.05 ± 0.01 | 0.13 ± 0.11 | 0.75 ± 0.36 | 0.21 ± 0.12 | 0.18 ± 0.05 | 5.09 ± 1.10 | 54.6 ± 38.5 | 117 ± 52.1 | 0.28 ± 0.22 | –
2 | O=C(O)CC[C@H](NC(=O)N[C@@H](CCCCNC(=O)c1ccc(Cn2cc(C[n+]3ccc([B-](F)(F)[18F])cc3)nn2)nc1)C(=O)O)C(=O)O [^18F-PSMA PyrBF3] | 6.66 ± 2.33 | 0.74 ± 0.15 | 0.76 ± 0.57 | 0.05 ± 0.01 | 1.05 ± 0.49 | 0.34 ± 0.08 | 0.48 ± 0.22 | 164 ± 50.2 | 1.28 ± 0.18 | 1.67 ± 0.47 | 0.28 ± 0.07 | 0.68 ± 0.50 | 3.36 ± 1.08 | 0.15 ± 0.03 | 0.67 ± 0.27 | 6.26 ± 0.82 | 8.67 ± 1.74 | 23.5 ± 5.00 | 0.04 ± 0.02 | –
3 | C[N+](C)(Cc1cn(Cc2ccc(C(=O)NCCCC[C@H](NC(=O)N[C@@H](CCC(=O)O)C(=O)O)C(=O)O)cn2)nn1)C[B-](F)(F)[18F] [^18F-HTK01130] | 1.46 ± 0.56 | 0.58 ± 0.09 | 0.22 ± 0.05 | 0.04 ± 0.01 | 0.39 ± 0.14 | 0.21 ± 0.05 | 0.31 ± 0.01 | 63.3 ± 13.5 | 1.26 ± 0.27 | 0.75 ± 0.10 | 0.20 ± 0.07 | 0.31 ± 0.11 | 0.95 ± 0.56 | 0.09 ± 0.03 | 0.30 ± 0.05 | 4.44 ± 1.11 | 7.60 ± 1.33 | 24.1 ± 8.79 | 0.07 ± 0.02 | Biodistribution Adrenal glands ([1]; 2 h): 1.08 ± 0.51 % ID/g; Biodistribution Blood ([1]; 2 h): 0.21 ± 0.10 % ID/g; Biodistribution Bone ([1]; 2 h): 0.20 ± 0.09 % ID/g; Biodistribution Brain ([1]; 2 h): 0.03 ± 0.01 % ID/g; Biodistribution Fat ([1]; 2 h): 0.32 ± 0.30 % ID/g; Biodistribution Heart ([1]; 2 h): 0.10 ± 0.04 % ID/g; Biodistribution Intestine ([1]; 2 h): 0.24 ± 0.11 % ID/g; Biodistribution Kidneys ([1]; 2 h): 48.2 ± 24.6 % ID/g; Biodistribution Liver ([1]; 2 h): 1.20 ± 0.30 % ID/g; Biodistribution Lungs ([1]; 2 h): 0.30 ± 0.10 % ID/g; Biodistribution Muscle ([1]; 2 h): 0.08 ± 0.03 % ID/g; Biodistribution Pancreas ([1]; 2 h): 0.20 ± 0.18 % ID/g; Biodistribution Spleen ([1]; 2 h): 0.39 ± 0.35 % ID/g; Biodistribution Stomach ([1]; 2 h): 0.05 ± 0.03 % ID/g; Biodistribution Testes ([1]; 2 h): 0.16 ± 0.10 % ID/g; Biodistribution Tumor ([1]; 2 h): 4.27 ± 0.65 % ID/g; Tumor:Blood contrast ratio ([1]; 2 h): 7.60 ± 1.33; Tumor:Muscle contrast ratio ([1]; 2 h): 24.1 ± 8.79; Tumor:kidney contrast ratio ([1]; 2 h): 0.07 ± 0.02
4 | O=C([O-])CN1CCN(CC(=O)[O-])CCN(CC(=O)NCC2CCC(C(=O)N[C@@H](Cc3ccc4ccccc4c3)C(=O)NCCCC[C@H](NC(=O)N[C@@H](CCC(=O)O)C(=O)O)C(=O)O)CC2)CCN(CC(=O)[O-])CC1.[177Lu+3] (stereo partly shown) [PSMA-617 radiolabeled with Lu-177] | – | – | – | – | – | – | – | – | – | – | – | – | – | – | – | – | – | – | – | positive response [2]: > 50%

Further lines, with some results ahead:

Row | Biodistribution Adrenal glands ([1]; 1 h) [% ID/g] | Biodistribution Blood ([1]; 1 h) [% ID/g] | Biodistribution Bone ([1]; 1 h) [% ID/g] | Biodistribution Brain ([1]; 1 h) [% ID/g] | Biodistribution Fat ([1]; 1 h) [% ID/g] | Biodistribution Heart ([1]; 1 h) [% ID/g] | Biodistribution Intestine ([1]; 1 h) [% ID/g] | Biodistribution Kidneys ([1]; 1 h) [% ID/g] | Biodistribution Liver ([1]; 1 h) [% ID/g] | Biodistribution Lungs ([1]; 1 h) [% ID/g] | Biodistribution Muscle ([1]; 1 h) [% ID/g] | Biodistribution Pancreas ([1]; 1 h) [% ID/g] | Biodistribution Spleen ([1]; 1 h) [% ID/g] | Biodistribution Stomach ([1]; 1 h) [% ID/g] | Biodistribution Testes ([1]; 1 h) [% ID/g] | Biodistribution Tumor ([1]; 1 h) [% ID/g] | Tumor:Blood contrast ratio ([1]; 1 h) | Tumor:Muscle contrast ratio ([1]; 1 h) | Tumor:kidney contrast ratio ([1]; 1 h) | Compound | further results
5 | 2.89 ± 1.94 | 0.89 ± 0.42 | 0.34 ± 0.14 | 0.04 ± 0.01 | 0.83 ± 0.33 | 0.31 ± 0.11 | 13.0 ± 4.61 | 73.9 ± 35.2 | 1.14 ± 0.48 | 1.21 ± 0.48 | 0.36 ± 0.18 | 0.30 ± 0.17 | 2.67 ± 0.98 | 0.37 ± 0.45 | 0.74 ± 0.55 | 14.0 ± 5.20 | 17.1 ± 5.40 | 49.7 ± 28.5 | 0.21 ± 0.08 | C[N+](C)(Cc1cn(CC(=O)NC[C@H]2CC[C@H](C(=O)N[C@@H](Cc3ccc4ccccc4c3)C(=O)NCCCC[C@H](NC(=O)N[C@@H](CCC(=O)O)C(=O)O)C(=O)O)CC2)nn1)C[B-](F)(F)[18F] [^18F-HTK01157] | –
6 | 2.02 ± 0.56 | 1.45 ± 1.15 | 0.54 ± 0.14 | 0.03 ± 0.00 | 0.42 ± 0.30 | 0.25 ± 0.06 | 20.8 ± 4.79 | 83.5 ± 35.7 | 1.10 ± 0.28 | 1.06 ± 0.23 | 0.18 ± 0.03 | 0.26 ± 0.08 | 2.84 ± 1.51 | 0.98 ± 0.12 | 0.39 ± 0.13 | 23.1 ± 8.26 | 35.4 ± 27.6 | 145 ± 57.0 | 0.32 ± 0.11 | O=C(O)CC[C@H](NC(=O)N[C@@H](CCCCNC(=O)[C@H](Cc1ccc2ccccc2c1)NC(=O)[C@H]1CC[C@H](CNC(=O)Cn2cc(C[n+]3ccc([B-](F)(F)[18F])cc3)nn2)CC1)C(=O)O)C(=O)O [^18F-PSMA-617-PyrBF3] | –
